Laboratory results reported in patent EP0363856A1, “Derivative of coumarin, process for its preparation and its use” (HOECHST AKTIENGESELLSCHAFT, priority 1988, dated 1990).

Molecular target: T1, Angereicherte γ-Glutamyl-Transpeptidasen (Bacillus subtilis subsp. natto, UniProt P63186)
T1 construct: Angereicherte γ-Glutamyl-Transpeptidasen der in Beispiel 3 genannten Mikroorganismen; endogenous in cells; host or cells: Bacillus subtilis "natto" IFO 3025, enzyme enriched from the culture
Experiment: Incubation of enriched enzyme with cephalosporin substrates (hydrolysis to D-α-Aminoadipinsäure and nucleus)
Type: biochemical
Settings: enriched enzyme from Bacillus subtilis; hydrolysis to D-α-Aminoadipinsäure and Desacetyl-7ACA or 7ACA
Description: Angereicherte γ-Glutamyl-Transpeptidasen der in Beispiel 3 genannten Mikroorganismen wurden mit Desacetyl-Cephalosporin C inkubiert. Nur das Enzym aus Bacillus subtilis, welches auch AAA-AMC spaltet, kann Desacetyl-Cephalosporin C und Cephalosporin C zu D-α-Aminoadipinsäure und Desacetyl-7ACA (18 % Umsetzung) bzw. 7ACA (3 % Umsetzung) hydrolysieren.

T1 sequence (P63186 36-587): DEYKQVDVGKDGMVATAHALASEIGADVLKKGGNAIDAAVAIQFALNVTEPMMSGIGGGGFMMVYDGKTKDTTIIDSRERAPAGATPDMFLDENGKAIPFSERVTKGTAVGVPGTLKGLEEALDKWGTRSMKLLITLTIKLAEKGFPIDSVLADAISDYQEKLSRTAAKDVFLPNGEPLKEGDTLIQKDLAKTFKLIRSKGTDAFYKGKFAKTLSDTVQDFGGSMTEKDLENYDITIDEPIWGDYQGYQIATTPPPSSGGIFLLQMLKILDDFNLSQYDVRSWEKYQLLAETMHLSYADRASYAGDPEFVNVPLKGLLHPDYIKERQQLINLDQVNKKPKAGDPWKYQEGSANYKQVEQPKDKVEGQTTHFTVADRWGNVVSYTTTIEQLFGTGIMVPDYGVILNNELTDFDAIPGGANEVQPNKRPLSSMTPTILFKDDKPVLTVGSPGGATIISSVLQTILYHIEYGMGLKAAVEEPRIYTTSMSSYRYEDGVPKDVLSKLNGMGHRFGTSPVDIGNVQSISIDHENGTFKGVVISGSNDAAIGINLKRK

SMILES	Umsetzung
CC(=O)OCC1=C(C(=O)O)N2C(=O)[C@@H](NC(=O)CCC[C@@H](N)C(=O)O)[C@H]2SC1 [Cephalosporin C]	3%
N[C@H](CCCC(=O)N[C@@H]1C(=O)N2C(C(=O)O)=C(CO)CS[C@H]12)C(=O)O [Desacetyl-Cephalosporin C]	18%
